Results reported in patent US20070281028A1, “Drug Delivery of a Cox Inhibitor from Embolic Agents” (Biocompatibles Uk Limited, priority 2004, published 2007).
“And” between values parts separate entries of the source, which are not always exact repeats. Equal values may be shown once.

Key:
[1] = Loading (uptake) of drug into microspheres, from depletion of loading solution (UV/HPLC); type: physicochemical; conditions: for dose loaded per ml of hydrated microspheres: 5 ml of 100 mg/ml drug in ethanol added to 0.5 ml microspheres; for ketoprofen loaded/ml spheres, maximum loading: at 24 hours; for ketorolac loaded in microspheres: low AMPS 500-710 μm, loaded from water
Method: A solution of 100 mg/ml flurbiprofen (Sigma) in ethanol was prepared. […] Low AMPS and high AMPS microspheres of size 500-710 μm were used and drug uptake monitored by UV. The samples were agitated on a roller mixer. Aliquots of supernatant were taken at 10, 20, 30, 60 mins and then at 2 hr, out to 24 hr. Uptake was calculated from the flurbiprofen remaining in solution. […] Microspheres of the present invention of each size loaded with 200 mg/ml flurbiprofen were placed in 250 ml water at 37° C.
The samples were agitated on a roller mnixer.
5 ml of the solution was added to 0.5 ml of low AMPS microspheres, of size 500-710 μm, and uptake monitored by HPLC. The samples were agitated on a roller mixer. Aliquots of supernatant were taken at 5, 10, 20 40 and 60 mins and then 24 hr.
The samples were agitated on a roller mixer. Samples of the supernatant were taken at 10, 20, 40, 60 mins and 24 hrs. […] Elution experiments were carried out on these microspheres (table 1). Microspheres were washed to determine quick burst in various media as in table 1. Then samples were placed in 10 ml solvent and absorbance read after 10 mins, a further 20 ml added and absorbance read after 10 mins, this was repeated up to 90 mls and elution was monitored up to 24 hrs (table 1).
Once prepared, the absorbances of the solutions were read by UV at 263 nm and dilutions were made to produce a standard curve. […] The vials were placed on a roller mixer at room temperature for the entire experiment. At a predetermined time points (0, 10, 20, 30 and 60 min) 100 μl was removed, diluted as necessary (1/200) and read at 263 nm. From the readings and the standard curve, the concentration of the solution at each time point was calculated. The amount of drug loaded onto the beads was measured by the depletion of the drug in solution when extracted with the beads. From the data the mg drug loaded per 1 ml of hydrated beads were calculated and the graph plotted.
Five samples of 1 ml of hydrated beads Low AMPS 700 to 1100 μm were used. For each sample, 1 ml of beads in phosphate buffered saline (PBS), measured with a 10 ml—glass cylinder, was transferred to a glass container and all the PBS was carefully removed with a glass Pasteur pipette. […] Once prepared, the absorbances of the solution and dilutions were read by UV at 263 nm to produce a standard curve. […] The vials were placed on the roller mixer at room temperature for the entire experiment. At predetermined time points (0, 20, 40, 60 and 120 min) 100 μl was removed, diluted as necessary (1/200) and read at 263 nm. From the readings and the standard curve, the concentration of the solution at each time point was calculated. The amount of drug loaded onto the beads was measured by the depletion of the drug in solution. From the data the mg drug loaded per 1 ml of beads were calculated and the graph plotted (FIG. 12).
Six samples of 1 ml of beads (700-1100 μm) were used. For each sample, 1 ml of beads in phosphate buffered saline (PBS), measured with a 10 ml glass cylinder, was transferred to a glass container and all the PBS was carefully removed with a glass Pasteur pipette. […] Once prepared, the absorbances of the solution and dilutions of the aqueous and of the alcoholic solutions were read by UV at 263 nm to produce standard curves. […] The vial was placed on the roller mixer at room temperature for the entire experiment. Once loaded, the remaining solution was removed, measured in a graduated measurement cylinder and read at 263 nm.

[2] = Release (elution) of drug from loaded microspheres in vitro; type: physicochemical; conditions: for salicylic acid loaded that was released: 100 ml water, majority within the first 15 minutes
HIF-1 alpha = conditions: COX-2 independent; cited from earlier work
HIF-2 alpha = conditions: COX-2 independent; cited from earlier work
COX-2/COX-1 = conditions: 0 = equal potency; above 0 more selective to COX-1, below 0 more selective to COX-2; cited from earlier work
[3] = Plasma levels of ibuprofen after embolisation, intra-arterial or intravenous administration; type: in vivo; conditions: sheep, after intra-arterial administration (IA) of 50 mg solution in both left and right artery
[4] = system: colorectal cancer cell line; conditions: cited from earlier work
[5] = high AMPS microspheres 500-710 μm
[6] = in less than 30 minutes, low and high AMPS microspheres, 100 mg/ml in ethanol
[7] = low AMPS microspheres 500-710 μm
[8] = 10 ml water, 37° C., released in the first 5 minutes

O=C(O)Cc1ccccc1Nc1c(Cl)cccc1Cl [Diclofenac]
dose loaded per ml of hydrated microspheres [1, 5]: 30 mg per ml of hydrated microsph | drug solution located in the microspheres [1, 6]: 99% | dose loaded per ml of hydrated microspheres [1, 7]: 26 mg per ml of hydrated microsph | further release ([2]; further in 48 hrs, microspheres loaded with 26 and 30 mg/ml, 250 ml water at 37° C.): 35% | release ([2]; in first 5 minutes, microspheres loaded with 26 and 30 mg/ml, 250 ml water at 37° C.): 18-26% | HIF-1 alpha gene expression (HIF-1 alpha): inhibited | HIF-2 alpha gene expression (HIF-2 alpha): inhibited

CC(C(=O)O)c1cccc(Oc2ccccc2)c1 (stereo not shown) [Fenoprofen]
Log [IC80 ratio WHMA COX-2/COX-1)] (COX-2/COX-1): 0

CC(C(=O)O)c1ccc(-c2ccccc2)c(F)c1 (stereo not shown) [Flurbiprofen]
dose loaded per ml of hydrated microspheres [1, 5]: 197 mg per ml of hydrated microsph | drug solution located in the microspheres [1, 6]: 99% | dose loaded per ml of hydrated microspheres [1, 7]: 195 mg per ml of hydrated microsph | further release ([2]; further in 2 days, microspheres loaded with 200 mg/ml, 250 ml water at 37° C.): 5% | release ([2]; in first 10 minutes, microspheres loaded with 200 mg/ml, 250 ml water at 37° C.): 30%

CC(C)Cc1ccc(C(C)C(=O)O)cc1 (stereo not shown) [Ibuprofen]
Loading mg/ml Bead ([1]; 2 ml loading solution (250 mg/ml in ethanol) to 1 ml low AMPS microspheres, listed as Ibuprofen Free Acid): 177.3 mg/ml Bead and 185.24 mg/ml Bead and 142.82 mg/ml Bead and 187.08 mg/ml Bead and 207.7 mg/ml Bead and 235.53 mg/ml Bead | Loading mg/ml Bead ([1]; 3 ml loading solution (250 mg/ml in ethanol) to 1 ml low AMPS microspheres): 323.7 mg/ml Bead | time at which optimum loading is obtained ([1]; loaded from ethanol, low AMPS beads 700 to 1100 μm, contraction then expels drug solution): around 20 mins | doses loaded per ml of hydrated microspheres ([1]; low AMPS microspheres, 250 mg/ml in ethanol, range over series of experiments): 142-335 mg per ml of hydrated microspheres | Elution rate (range) ([2]; low AMPS microspheres, elution up to 90 mls, up to 24 hrs, over experiments of table 1): 20%-43% | Elution rate, average in most experiments ([2]; low AMPS microspheres, up to 24 hrs): 25% | Eluted Drug ([2]; quick burst/wash out solvent 50% ethanol, elution solvent 50% ethanol, up to 24 hrs): 53 mg | Eluted Drug ([2]; quick burst/wash out solvent 100% ethanol, elution solvent 0.9% Saline (pH 12), up to 24 hrs): 60 mg | Eluted Drug ([2]; quick burst/wash out solvent 100% ethanol, elution solvent 50% ethanol, up to 24 hrs): 47 mg | quick burst ([2]; wash of loaded low AMPS microspheres in various media): approximately 15% | Eluted Drug ([2]; wash out and elution solvent 0.9% Saline (pH 12), 2 ml loading solution, up to 24 hrs, listed as Ibuprofen Free Acid): 47 mg and 83 mg and 57 mg | Eluted Drug ([2]; wash out and elution solvent 0.9% Saline (pH 12), 3 ml loading solution, up to 24 hrs): 77 mg | Cmax [3]: 32000 ng/mL | HIF-2 alpha gene expression (HIF-2 alpha): inhibited

CC(C(=O)O)c1cccc(C(=O)c2ccccc2)c1 (stereo not shown) [Ketoprofen]
ketoprofen loaded/ml spheres, maximum loading ([1]; high AMPS microspheres 500-710 μm, 30 mg/ml in ethanol): approximately 10 mg ketoprofen loaded/ml spheres | ketoprofen loaded/ml spheres, maximum loading ([1]; low AMPS microspheres 500-710 μm, 30 mg/ml in ethanol): approximately 12 mg ketoprofen loaded/ml spheres | time of maximum loading ([1]; low and high AMPS microspheres, 30 mg/ml in ethanol, monitored over 72 hours): 24 h

O=C(c1ccccc1)c1ccc2n1CCC2C(=O)O (stereo not shown) [Ketorolac]
ketorolac loaded in microspheres ([1]; high loaded microspheres): 27 mg/mL | drug solution located in the microspheres ([1]; in less than 10 minutes, low AMPS microspheres 500-710 μm, 50 mg/ml and 10 mg/ml in water): 99% | ketorolac loaded in microspheres ([1]; low loaded microspheres): 13 mg/mL | released ([2]; high AMPS loaded microspheres (so in the source), first 5 minutes, 250 ml water at 37° C.): 43% | further slow release ([2]; high AMPS loaded microspheres (so in the source), further in the next 24 hrs): 4% | released ([2]; high AMPS loaded microspheres (so in the source), in 1 hrs, 250 ml water at 37° C.): 90% | released ([2]; low loaded microspheres, first 5 minutes, 250 ml water at 37° C.): 75% | further release ([2]; low loaded microspheres, further in next 24 hrs): 5% | released ([2]; low loaded microspheres, in 1 hr, 250 ml water at 37° C.): 90% | HIF-2 alpha gene expression (HIF-2 alpha): inhibited

CS(=O)(=O)Nc1ccc([N+](=O)[O-])cc1OC1CCCCC1 [NS398]
HIF-2 alpha gene expression (HIF-2 alpha): inhibition | expression of pro-angiogenic factors, including VEGF [4]: diminished

COc1ccc2cc([C@H](C)C(=O)O)ccc2c1 [Naproxen]
naproxen taken up per ml of spheres ([1]; low or high AMPS microspheres 500-710 μm, 30 mg/ml in ethanol, over 168 hours): 35-40 mg naproxen/ml of spheres | drug released per ml of microspheres [2, 8]: 6-9 mg/ml of microspheres | loaded drug released from the microspheres [2, 8]: 17-25% | further release after transfer to fresh water ([2]; transfer to 10 ml fresh water after 17 hours, measured 7 hours more): did not bring about any further release

O=C(O)c1cccnc1Nc1cccc(C(F)(F)F)c1 [Niflumic Acid]
Log [IC80 ratio WHMA COX-2/COX-1)] (COX-2/COX-1): 0

Cc1cc(CC(=O)O)n(C)c1C(=O)c1ccc(Cl)cc1 [Zomepirac]
Log [IC80 ratio WHMA COX-2/COX-1)] (COX-2/COX-1): 0

CC(C)Cc1ccc(C(C)C(=O)[O-])cc1.[Na+] (stereo not shown) [ibuprofen sodium salt]
time at which maximum loading is reached ([1]; loaded from ethanol 250 mg/ml, low AMPS beads 700-1100 μm, loading decreases afterwards): about 20 minutes | loading levels, drug per ml of hydrated beads ([1]; range over six microsphere products, 2 ml of 100 mg/ml in water to 1 ml microspheres, 100 minute period): 67 to 142 mg of drug per ml of hydrated beads

O=C(O)c1ccccc1O [salicylic acid]
maximum salicylic acid taken up per ml of microspheres ([1]; low or high AMPS 500-710 μm, 5 mg/ml in ethanol, after 3-4 hours): 3-4 mg salicylic acid/ml of microspheres | salicylic acid taken up per ml of microspheres ([1]; low or high AMPS 500-710 μm, 5 mg/ml in ethanol, after 24 hours): 2-3 mg/ml of microspheres | salicylic acid loaded that was released ([2]; high AMPS microspheres, 37° C.): approximately 30% | salicylic acid loaded that was released ([2]; low AMPS microspheres, 37° C.): approximately 25% | further release after transferral into fresh water ([2]; transfer to 10 ml fresh water after 60 hours, measured 60 hours more): did not bring about any further release
